Reference: patent publication US20020026053A1, “Novel 3-(substituted) -2- indolinones compounds and use thereof as inhibitors of protein kinase activity” (priority 1997, published 2002)

target: T1, EGFR (Homo sapiens, UniProt P00533); assay: Biochemical EGFR Assay; set-up: concentration or dose not given beside the values
T1 construct: endogenous in cells; host or cells: A431 cells (lysate, captured with SUMO1 anti-EGFR antibody)
Method in brief: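 EGFR from A431 lysate was captured on anti-EGFR-coated wells and preincubated 30 min with compound (diluted 1:10 in TBS) at room temperature. After ATP/MnCl2 phosphorylation for 5 min, the reaction was stopped with EDTA. Phosphotyrosine was detected by ELISA (anti-phosphotyrosine, peroxidase conjugate, ABTS) at 410 nm.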

T1 sequence (P00533 25-1210): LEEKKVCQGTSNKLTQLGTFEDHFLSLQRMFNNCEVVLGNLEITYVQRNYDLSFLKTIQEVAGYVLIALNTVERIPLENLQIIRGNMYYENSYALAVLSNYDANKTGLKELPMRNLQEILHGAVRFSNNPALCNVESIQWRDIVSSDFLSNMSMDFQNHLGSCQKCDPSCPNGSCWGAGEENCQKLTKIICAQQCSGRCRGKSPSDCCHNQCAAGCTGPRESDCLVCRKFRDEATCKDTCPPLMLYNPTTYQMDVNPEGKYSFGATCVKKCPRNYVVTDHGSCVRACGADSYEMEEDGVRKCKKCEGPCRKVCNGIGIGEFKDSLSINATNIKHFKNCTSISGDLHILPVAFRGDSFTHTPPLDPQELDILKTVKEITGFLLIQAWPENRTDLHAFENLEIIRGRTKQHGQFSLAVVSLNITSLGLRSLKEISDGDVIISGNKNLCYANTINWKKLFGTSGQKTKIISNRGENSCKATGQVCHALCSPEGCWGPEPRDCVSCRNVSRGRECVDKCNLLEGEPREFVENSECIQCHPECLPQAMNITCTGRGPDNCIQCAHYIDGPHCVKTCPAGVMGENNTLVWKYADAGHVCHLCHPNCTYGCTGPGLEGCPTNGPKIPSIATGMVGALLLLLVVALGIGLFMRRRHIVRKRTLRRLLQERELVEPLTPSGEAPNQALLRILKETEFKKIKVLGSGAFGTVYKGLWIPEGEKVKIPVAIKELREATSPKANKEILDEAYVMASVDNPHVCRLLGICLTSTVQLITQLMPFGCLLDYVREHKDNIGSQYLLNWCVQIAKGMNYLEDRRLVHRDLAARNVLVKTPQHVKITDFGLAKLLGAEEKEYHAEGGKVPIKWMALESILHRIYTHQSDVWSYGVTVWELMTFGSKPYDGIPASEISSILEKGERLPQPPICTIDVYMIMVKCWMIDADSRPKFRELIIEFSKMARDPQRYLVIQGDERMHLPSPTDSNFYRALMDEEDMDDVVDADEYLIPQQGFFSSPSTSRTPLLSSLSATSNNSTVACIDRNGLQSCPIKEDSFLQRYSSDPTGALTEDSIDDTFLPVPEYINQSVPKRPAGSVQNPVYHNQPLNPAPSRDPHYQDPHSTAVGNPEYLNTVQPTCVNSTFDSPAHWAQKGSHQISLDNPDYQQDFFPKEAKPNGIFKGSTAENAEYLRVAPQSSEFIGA

Point of comparison: O=C1Nc2ccc(S(=O)(=O)N3CCOCC3)cc2C1=Cc1ccc(Br)s1 [10734/F11], “Biochem EGFR % Inhibition (P.167)” value −15.6%. Against it:
- O=C1Nc2ccc(S(=O)(=O)N3CCOCC3)cc2C1=Cc1cc(Cl)cc(Cl)c1O [10734/F03] — higher, 24.8%
- O=C1Nc2ccc(S(=O)(=O)N3CCOCC3)cc2C1=Cc1cc(Cl)ccc1O [10734/F04] — higher, 3.9%
- CCN(CC)c1ccc(C=C2C(=O)Nc3ccc(S(=O)(=O)N4CCOCC4)cc32)c(O)c1 [10734/F05] — the same, −15.6%
- O=C1Nc2ccc(S(=O)(=O)N3CCOCC3)cc2C1=Cc1ccc([N+](=O)[O-])cc1 [10734/F06] — lower, −17.1%
- O=C1Nc2ccc(S(=O)(=O)N3CCOCC3)cc2C1=Cc1cc(Br)cc(Br)c1O [10734/F07] — higher, 33.7%
- O=C1Nc2ccc(S(=O)(=O)N3CCOCC3)cc2C1=Cc1cccc(F)c1O [10734/F08] — lower, −23.6%
- O=C1Nc2ccc(S(=O)(=O)N3CCOCC3)cc2C1=Cc1ccc(O)c(Br)c1 [10734/F09] — higher, 3.1%
- CC(C)(C)c1ccc(C=C2C(=O)Nc3ccc(S(=O)(=O)N4CCOCC4)cc32)cc1 [10734/F10] — higher, −8.3%
- CCOc1cccc(C=C2C(=O)Nc3ccc(CCCl)cc32)c1O [10734/G02] — higher, 3.4%
- O=C1Nc2ccc(CCCl)cc2C1=Cc1cc(Cl)cc(Cl)c1O [10734/G03] — higher, 82.8%
- O=C1Nc2ccc(CCCl)cc2C1=Cc1cc(Cl)ccc1O [10734/G04] — higher, 62.9%
- CCN(CC)c1ccc(C=C2C(=O)Nc3ccc(CCCl)cc32)c(O)c1 [10734/G05] — higher, −0.3%
- O=C1Nc2ccc(CCCl)cc2C1=Cc1ccc([N+](=O)[O-])cc1 [10734/G06] — higher, 12.5%
- O=C1Nc2ccc(CCCl)cc2C1=Cc1cc(Br)cc(Br)c1O [10734/G07] — higher, 51.1%
- O=C1Nc2ccc(CCCl)cc2C1=Cc1cccc(F)c1O [10734/G08] — higher, 33.7%
- O=C1Nc2ccc(CCCl)cc2C1=Cc1ccc(O)c(Br)c1 [10734/G09] — higher, 21.4%
- CC(C)(C)c1ccc(C=C2C(=O)Nc3ccc(CCCl)cc32)cc1 [10734/G10] — higher, 3.8%
- O=C1Nc2ccc(CCCl)cc2C1=Cc1ccc(Br)s1 [10734/G11] — higher, 4.1%
- CCOc1cccc(C=C2C(=O)Nc3c(Br)cc(Br)c(C)c32)c1O [10734/H02] — higher, −11.9%
- Cc1c(Br)cc(Br)c2c1C(=Cc1cc(Cl)cc(Cl)c1O)C(=O)N2 [10734/H03] — higher, 6.6%
- Cc1c(Br)cc(Br)c2c1C(=Cc1cc(Cl)ccc1O)C(=O)N2 [10734/H04] — higher, 5.9%
